# Source: PubChem BioAssay AID1963835 (Molecular Pharmacology Branch, DTP, NCI, 2024)
# System: 699152-130-R-J1-PDC complex spheroid viability
# Test: Anticancer human tumor 699152-130-R-J1-PDC patient-derived pancreatic carcinoma cell line growth inhibition [POLQ]
# Details: for IC50: curve of first compound; for viability, T/C: stronger effect = lower value
# Procedure, shortened: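 Three-cell-type spheroids modelling solid tumor plus stroma served as the readout system; POL inhibitors were tested individually and in combination, concentration ranges set by clinical Cmax where known.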
# [1] = second compound 0.0316 µM, first compound 0.0316 µM
# [2] = second compound 0.0316 µM, first compound 0.1 µM
# [3] = second compound 0.0316 µM, first compound 0.316 µM
# [4] = second compound 0.0316 µM, first compound 1 µM
# [5] = second compound 0.0316 µM, first compound 3.16 µM
# [6] = second compound 0.0316 µM, first compound 10 µM
# [7] = second compound 0.1 µM, first compound 0.0316 µM
# [8] = second compound 0.1 µM, first compound 0.1 µM
# [9] = second compound 0.1 µM, first compound 0.316 µM
# [10] = second compound 0.1 µM, first compound 1 µM
# [11] = second compound 0.1 µM, first compound 3.16 µM
# [12] = second compound 0.1 µM, first compound 10 µM
# [13] = second compound 0.316 µM, first compound 0.0316 µM
# [14] = second compound 0.316 µM, first compound 0.1 µM
# [15] = second compound 0.316 µM, first compound 0.316 µM
# [16] = second compound 0.316 µM, first compound 1 µM
# [17] = second compound 0.316 µM, first compound 3.16 µM
# [18] = second compound 0.316 µM, first compound 10 µM
# [19] = second compound 1 µM, first compound 0.0316 µM
# [20] = second compound 1 µM, first compound 0.1 µM
# [21] = second compound 1 µM, first compound 0.316 µM
# [22] = second compound 1 µM, first compound 1 µM
# [23] = second compound 1 µM, first compound 3.16 µM
# [24] = second compound 1 µM, first compound 10 µM
# [25] = second compound 3.16 µM, first compound 0.0316 µM
# [26] = second compound 3.16 µM, first compound 0.1 µM
# [27] = second compound 3.16 µM, first compound 0.316 µM
# [28] = second compound 3.16 µM, first compound 1 µM
# [29] = second compound 3.16 µM, first compound 3.16 µM
# [30] = second compound 3.16 µM, first compound 10 µM
# [31] = second compound 10 µM, first compound 0.0316 µM
# [32] = second compound 10 µM, first compound 0.1 µM
# [33] = second compound 10 µM, first compound 0.316 µM
# [34] = second compound 10 µM, first compound 1 µM
# [35] = second compound 10 µM, first compound 3.16 µM
# [36] = second compound 10 µM, first compound 10 µM
# 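Further: spheroids exposed to agents for 7 days before viability reading.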
# 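Wherever viability, T/C is given: percent of DMSO vehicle control viability so 100% = vehicle and 0% = no viable signal.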
compound,measurement,setting,value
O=c1[nH]cc(F)c(=O)[nH]1 + Cc1cccc(N(C)C(=O)C2C(O)CCN2c2nc(C)cc(C(F)(F)F)c2C#N)c1,IC50,second compound 0.0316 µM,> 10 µM
same,IC50,second compound 0.1 µM,> 10 µM
same,IC50,second compound 0.316 µM,> 10 µM
same,IC50,second compound 1 µM,> 10 µM
same,IC50,second compound 3.16 µM,> 10 µM
same,IC50,second compound 10 µM,> 10 µM
same,"viability, T/C",[1],105%
same,"viability, T/C",[2],109%
same,"viability, T/C",[3],107%
same,"viability, T/C",[4],113%
same,"viability, T/C",[5],102%
same,"viability, T/C",[6],74.1%
same,"viability, T/C",[7],110%
same,"viability, T/C",[8],113%
same,"viability, T/C",[9],99.2%
same,"viability, T/C",[10],107%
same,"viability, T/C",[11],100%
same,"viability, T/C",[12],82.6%
same,"viability, T/C",[13],120%
same,"viability, T/C",[14],122%
same,"viability, T/C",[15],106%
same,"viability, T/C",[16],107%
same,"viability, T/C",[17],120%
same,"viability, T/C",[18],79.9%
same,"viability, T/C",[19],108%
same,"viability, T/C",[20],104%
same,"viability, T/C",[21],104%
same,"viability, T/C",[22],111%
same,"viability, T/C",[23],92.1%
same,"viability, T/C",[24],74.7%
same,"viability, T/C",[25],113%
same,"viability, T/C",[26],116%
same,"viability, T/C",[27],108%
same,"viability, T/C",[28],104%
same,"viability, T/C",[29],117%
same,"viability, T/C",[30],87.3%
same,"viability, T/C",[31],103%
same,"viability, T/C",[32],102%
same,"viability, T/C",[33],104%
same,"viability, T/C",[34],92.8%
same,"viability, T/C",[35],91.3%
same,"viability, T/C",[36],84.6%
CCc1cc2c(N3CCc4c(cc(Cn5ccnc5)cc4-c4cn(C)nc4C(F)(F)F)C3=O)cc(C)nc2c(OC)n1 + COC1C(OC(N)=O)C(O)C(Oc2ccc3c(O)c(NC(=O)c4ccc(O)c(CC=C(C)C)c4)c(=O)oc3c2C)OC1(C)C,IC50,second compound 0.0316 µM,> 10 µM
same,IC50,second compound 0.1 µM,> 10 µM
same,IC50,second compound 0.316 µM,> 10 µM
same,IC50,second compound 1 µM,> 10 µM
same,IC50,second compound 3.16 µM,> 10 µM
same,IC50,second compound 10 µM,> 10 µM
same,"viability, T/C",[1],91%
same,"viability, T/C",[2],91.9%
same,"viability, T/C",[3],89.5%
same,"viability, T/C",[4],93.2%
same,"viability, T/C",[5],101%
same,"viability, T/C",[6],100%
same,"viability, T/C",[7],93.9%
same,"viability, T/C",[8],91.4%
same,"viability, T/C",[9],91.7%
same,"viability, T/C",[10],101%
same,"viability, T/C",[11],96.9%
same,"viability, T/C",[12],99.5%
same,"viability, T/C",[13],94.5%
same,"viability, T/C",[14],91.4%
same,"viability, T/C",[15],89.8%
same,"viability, T/C",[16],96.1%
same,"viability, T/C",[17],99%
same,"viability, T/C",[18],106%
same,"viability, T/C",[19],98.8%
same,"viability, T/C",[20],83.5%
same,"viability, T/C",[21],97.2%
same,"viability, T/C",[22],96%
same,"viability, T/C",[23],94.2%
same,"viability, T/C",[24],99.8%
same,"viability, T/C",[25],92.4%
same,"viability, T/C",[26],86.8%
same,"viability, T/C",[27],84.2%
same,"viability, T/C",[28],98.5%
same,"viability, T/C",[29],95%
same,"viability, T/C",[30],102%
same,"viability, T/C",[31],93.2%
same,"viability, T/C",[32],102%
same,"viability, T/C",[33],88.5%
same,"viability, T/C",[34],100%
same,"viability, T/C",[35],105%
same,"viability, T/C",[36],106%
